Reference: patent US20170290882A1, “Specific Combined Therapy of Malignant Tumors with a Cytostatic and Its Modifier” (priority 2015, published 2017)

Legend:
B16 melanoma = assay: Binary therapy DDP+GMDP-A in the B16 melanoma model; assay type: in vivo, BDF1 mice; conditions: for Tumor volume / tumor growth inhibition (TGI) / Average life time / ILT (increase of the animal life time) / Metastasis MF (tumor metastasis frequency) / Metastasis MI (metastasis inhibition rate): DDP, if given, single 4 mg/kg i.v.
Method: (§1) They were transplanted on the right-side surface of the animal body.
(§2) The animals with tumors were treated in test groups at the early (24 hours after tumor inoculation) and late (5 days after tumor inoculation) terms of the tumor growth using a single cytostatic injection intravenously in a dose equal to ½ or ¼ of therapeutic one and various schedules for GMDP-A injection: • Primary subcutaneous injection of GMDP-A modifier in a single dose 3.75 mg/kg; • Repeated protracted subcutaneous administration of GMDP-A modifier according to different schedules: 4-fold, 9-fold and 20-fold, once per day, in a single dose of 3.75 mg/kg (course dose is 18.75 mg/kg, 37.5 mg/kg and 78.75 mg/kg, correspondingly). Dosage frequency depends upon the model (histological form of transplanted tumor).
(§3) To identify efficiency of the claimed combined therapy, independent medication was carried out as a control after tumor inoculation using one component of binary therapy-cytostatic drug or a modifier. Cytostatic was injected intravenously in amount of ½ or ¼ of therapeutic dose once after 24 hours or 5 days after tumor inoculation; GMDP-A modifier was administered subcutaneously in a single dose of 3.75 mg/kg 5-fold from the 1st day to the 5th day or from the 5th day to the 9th day, or 10-fold from the 1st day to the 10th day or from the 5th day to the 14th day, or 21-fold from the 1st day to the 21st day after tumor inoculation.
(§4) Anti-tumor efficiency of the claimed combined therapy and comparative monotherapy using only a cytostatic or only GMDP-A modifier was assessed by the criteria commonly used in experimental oncology: tumor volume (TV), tumor growth inhibition (TGI), increase of the animal life time (ILT), tumor metastasis frequency (MF), metastasis inhibition rate (MI).
Efficiency of the combined therapy—chemotherapy with DDP cytostatic and biotherapy with GMDP-A was assessed on B16 melanoma model inoculated to BDF1 mice, females, subcutaneously on the right-side body surface.
1 mg/ml GMDP-A solution for subcutaneous injection was prepared by dissolving GMDP-A lyophilisate in water for injections.
GMDP-A was administered to mice subcutaneously as a single dose of 3.75 mg/kg every day with different schedules:
Five-fold (total dose is 18.75 mg/kg) on the 1st day to the 5th day or on the 5th day to the 9th day after tumor inoculation;
Ten-fold (total dose is 37.5 mg/kg) on the 1st day to the 10th day or on the 5th day to the 14th day after tumor inoculation;
DDP (Cisplatin, Cisplatin Teva trade mark, manufacturer is Teva Pharmaceutical Industries Ltd., Israel, fabricated at Pharmachemie B.V., the Netherlands) was administered intravenously as a single dose of 4 mg/kg (½ of therapeutic dose).

[1] = test system: P388 lymphoplastic leukemia; assay: Combined therapy DDP+GMDP-A in the P388 lymphoplastic leukemia model; assay type: in vivo, mice BDF1; conditions: for Tumor volume / tumor growth inhibition (TGI) / Average life time / ILT (increase of the animal life time) / Metastasis MF (tumor metastasis frequency) / Metastasis MI (metastasis inhibition rate): DDP, if given, single 4 mg/kg i.v.
Method: as §1, §2, §3, §4
Efficiency of the combined therapy—chemotherapy with cisplatin cytostatic (DDP) and bioherapy with GMDP-A was assessed on P388 lymphoplastic leukemia model inoculated to mice BDF1, females, subcutaneously on the right-side body surface.
GMDP-A was administered to mice subcutaneously as a single dose of 3.75 mg/kg every day with different schedules: • Five-fold (total dose is 18.75 mg/kg) on the 1st day to the 5th day or on the 5th day to the 9th day after tumor inoculation; • Ten-fold (total dose is 37.5 mg/kg) on the 1st day to the 10th day or on the 5th day to the 14th day after tumor inoculation; • Twenty-one-fold (total dose is 78.75 mg/kg) on the 1st day to the 21st st day after tumor inoculation.
DDP (Cisplatin, Cisplatin Teva trade mark, manufacturer is Teva Pharmaceutical Industries Ltd., Israel, fabricated at Pharmachemie B.V., the Netherlands) was administered intravenously as a single dose ma 4 mg/kg (½ of therapeutic dose).

[2] = at assumed therapeutic dose and at its five-fold excess; cited from earlier work
[3] = day 7, early start (1st day), 5-fold GMDP-A 3.75 mg/kg s.c.
[4] = day 7, early start (1st day), 10-fold GMDP-A 3.75 mg/kg s.c.
[5] = day 9, early start (1st day), 5-fold GMDP-A 3.75 mg/kg s.c.
[6] = day 9, early start (1st day), 10-fold GMDP-A 3.75 mg/kg s.c.
[7] = day 9, late start (5th day), 5-fold GMDP-A 3.75 mg/kg s.c.
[8] = day 9, late start (5th day), 10-fold GMDP-A 3.75 mg/kg s.c.
[9] = day 12, early start (1st day), 5-fold GMDP-A 3.75 mg/kg s.c.
[10] = day 12, early start (1st day), 10-fold GMDP-A 3.75 mg/kg s.c.
[11] = day 12, late start (5th day), 5-fold GMDP-A 3.75 mg/kg s.c.
[12] = day 12, late start (5th day), 10-fold GMDP-A 3.75 mg/kg s.c.
[13] = day 14, early start (1st day), 5-fold GMDP-A 3.75 mg/kg s.c.
[14] = day 14, early start (1st day), 10-fold GMDP-A 3.75 mg/kg s.c.
[15] = day 14, late start (5th day), 5-fold GMDP-A 3.75 mg/kg s.c.
[16] = day 14, late start (5th day), 10-fold GMDP-A 3.75 mg/kg s.c.
[17] = day 16, early start (1st day), 5-fold GMDP-A 3.75 mg/kg s.c.
[18] = day 16, early start (1st day), 10-fold GMDP-A 3.75 mg/kg s.c.
[19] = day 16, late start (5th day), 5-fold GMDP-A 3.75 mg/kg s.c.
[20] = day 16, late start (5th day), 10-fold GMDP-A 3.75 mg/kg s.c.
[21] = day 19, early start (1st day), 5-fold GMDP-A 3.75 mg/kg s.c.
[22] = day 19, early start (1st day), 10-fold GMDP-A 3.75 mg/kg s.c.
[23] = day 19, late start (5th day), 5-fold GMDP-A 3.75 mg/kg s.c.
[24] = day 19, late start (5th day), 10-fold GMDP-A 3.75 mg/kg s.c.
[25] = early start (1st day), 5-fold GMDP-A 3.75 mg/kg s.c.
[26] = early start (1st day), 10-fold GMDP-A 3.75 mg/kg s.c.
[27] = late start (5th day), 5-fold GMDP-A 3.75 mg/kg s.c.
[28] = late start (5th day), 10-fold GMDP-A 3.75 mg/kg s.c.
[29] = day 7, early start (1st day), 21-fold GMDP-A 3.75 mg/kg s.c.
[30] = day 7, late start (5th day), 5-fold GMDP-A 3.75 mg/kg s.c.
[31] = day 7, late start (5th day), 10-fold GMDP-A 3.75 mg/kg s.c.
[32] = day 9, early start (1st day), 21-fold GMDP-A 3.75 mg/kg s.c.
[33] = day 12, early start (1st day), 21-fold GMDP-A 3.75 mg/kg s.c.
[34] = day 14, early start (1st day), 21-fold GMDP-A 3.75 mg/kg s.c.
[35] = day 19, early start (1st day), 21-fold GMDP-A 3.75 mg/kg s.c.
[36] = early start (1st day), 21-fold GMDP-A 3.75 mg/kg s.c.

CC(=O)NC1C(OC2C(CO)OC(O)C(NC(C)=O)C2OC(C)C(=O)NC(C)C(=O)NC(CCC(=O)O)C(=O)O)OC(CO)C(O)C1O [GMDP-A, N-acetyl-D-glucosaminyl-β-(1-4)-N-acetylmuramyl-L-alanyl-D-glutamic acid]
Tumor volume (B16 melanoma; [3]): 11 ± 6 mm^3
tumor growth inhibition (TGI) (B16 melanoma; [3]): 71%
Tumor volume (B16 melanoma; [4]): 15 ± 6 mm^3
tumor growth inhibition (TGI) (B16 melanoma; [4]): 62%
Tumor volume (B16 melanoma; [5]): 58 ± 11 mm^3
tumor growth inhibition (TGI) (B16 melanoma; [5]): 51%
Tumor volume (B16 melanoma; [6]): 56 ± 9 mm^3
tumor growth inhibition (TGI) (B16 melanoma; [6]): 52%
Tumor volume (B16 melanoma; [7]): 61 ± 9 mm^3
tumor growth inhibition (TGI) (B16 melanoma; [7]): 48%
Tumor volume (B16 melanoma; [8]): 66 ± 14 mm^3
tumor growth inhibition (TGI) (B16 melanoma; [8]): 44%
Tumor volume (B16 melanoma; [9]): 177 ± 33 mm^3
tumor growth inhibition (TGI) (B16 melanoma; [9]): 33%
Tumor volume (B16 melanoma; [10]): 162 ± 21 mm^3
tumor growth inhibition (TGI) (B16 melanoma; [10]): 38%
Tumor volume (B16 melanoma; [11]): 173 ± 17 mm^3
tumor growth inhibition (TGI) (B16 melanoma; [11]): 34%
Tumor volume (B16 melanoma; [12]): 164 ± 29 mm^3
tumor growth inhibition (TGI) (B16 melanoma; [12]): 37%
Tumor volume (B16 melanoma; [13]): 347 ± 47 mm^3
tumor growth inhibition (TGI) (B16 melanoma; [13]): 8%
Tumor volume (B16 melanoma; [14]): 298 ± 44 mm^3
tumor growth inhibition (TGI) (B16 melanoma; [14]): 21%
Tumor volume (B16 melanoma; [15]): 329 ± 41 mm^3
tumor growth inhibition (TGI) (B16 melanoma; [15]): 13%
Tumor volume (B16 melanoma; [16]): 269 ± 62 mm^3
tumor growth inhibition (TGI) (B16 melanoma; [16]): 29%
Tumor volume (B16 melanoma; [17]): 522 ± 82 mm^3
tumor growth inhibition (TGI) (B16 melanoma; [17]): 6%
Tumor volume (B16 melanoma; [18]): 446 ± 53 mm^3
tumor growth inhibition (TGI) (B16 melanoma; [18]): 20%
Tumor volume (B16 melanoma; [19]): 391 ± 67 mm^3
tumor growth inhibition (TGI) (B16 melanoma; [19]): 30%
Tumor volume (B16 melanoma; [20]): 408 ± 79 mm^3
tumor growth inhibition (TGI) (B16 melanoma; [20]): 27%
Tumor volume (B16 melanoma; [21]): 690 ± 208 mm^3
tumor growth inhibition (TGI) (B16 melanoma; [21]): 10%
Tumor volume (B16 melanoma; [22]): 894 ± 99 mm^3
tumor growth inhibition (TGI) (B16 melanoma; [22]): 16%
Tumor volume (B16 melanoma; [23]): 817 ± 234 mm^3
tumor growth inhibition (TGI) (B16 melanoma; [23]): 23%
Tumor volume (B16 melanoma; [24]): 882 ± 238 mm^3
tumor growth inhibition (TGI) (B16 melanoma; [24]): 17%
Average life time (B16 melanoma; [25]): 21 ± 4 days
ILT (increase of the animal life time) (B16 melanoma; [25]): 0%
Metastasis MF (tumor metastasis frequency) (B16 melanoma; [25]): 80%
Metastasis MI (metastasis inhibition rate) (B16 melanoma; [25]): 29%
Average life time (B16 melanoma; [26]): 27 ± 4 days
ILT (increase of the animal life time) (B16 melanoma; [26]): 29%
Metastasis MF (tumor metastasis frequency) (B16 melanoma; [26]): 40%
Metastasis MI (metastasis inhibition rate) (B16 melanoma; [26]): 81%
efficiency for individual use (without chemotherapy) (B16 melanoma; example 2): did not reach a biologically significant level
Average life time (B16 melanoma; [27]): 18 ± 3 days
ILT (increase of the animal life time) (B16 melanoma; [27]): 0%
Metastasis MF (tumor metastasis frequency) (B16 melanoma; [27]): 100%
Metastasis MI (metastasis inhibition rate) (B16 melanoma; [27]): 5%
Average life time (B16 melanoma; [28]): 24 ± 4 days
ILT (increase of the animal life time) (B16 melanoma; [28]): 14%
Metastasis MF (tumor metastasis frequency) (B16 melanoma; [28]): 100%
Metastasis MI (metastasis inhibition rate) (B16 melanoma; [28]): 8%
Tumor volume [1, 3]: 45 ± 2 mm^3
tumor growth inhibition (TGI) [1, 3]: 51%
Tumor volume [1, 4]: 66.6 ± 6 mm^3
tumor growth inhibition (TGI) [1, 4]: 37%
Tumor volume [1, 29]: 73.5 ± 4.8 mm^3
tumor growth inhibition (TGI) [1, 29]: 30%
Tumor volume [1, 30]: 63 ± 12 mm^3
tumor growth inhibition (TGI) [1, 30]: 31%
Tumor volume [1, 31]: 86.5 ± 5.9 mm^3
tumor growth inhibition (TGI) [1, 31]: 18%
Tumor volume [1, 5]: 124 ± 7 mm^3
tumor growth inhibition (TGI) [1, 5]: 36%
Tumor volume [1, 6]: 108.6 ± 14.2 mm^3
tumor growth inhibition (TGI) [1, 6]: 24%
Tumor volume [1, 32]: 120.6 ± 12.5 mm^3
tumor growth inhibition (TGI) [1, 32]: 16%
Tumor volume [1, 7]: 107 ± 18 mm^3
tumor growth inhibition (TGI) [1, 7]: 45%
Tumor volume [1, 8]: 105 ± 9 mm^3
tumor growth inhibition (TGI) [1, 8]: 26%
Tumor volume [1, 9]: 204 ± 54 mm^3
tumor growth inhibition (TGI) [1, 9]: 6%
Tumor volume [1, 10]: 187.3 ± 27.4 mm^3
tumor growth inhibition (TGI) [1, 10]: 4%
Tumor volume [1, 33]: 159.0 ± 14.7 mm^3
tumor growth inhibition (TGI) [1, 33]: 18%
Tumor volume [1, 11]: 172 ± 51 mm^3
tumor growth inhibition (TGI) [1, 11]: 21%
Tumor volume [1, 12]: 163.8 ± 13.5 mm^3
tumor growth inhibition (TGI) [1, 12]: 16%
Tumor volume [1, 13]: 257 ± 24 mm^3
tumor growth inhibition (TGI) [1, 13]: 16%
Tumor volume [1, 14]: 245.3 ± 30.5 mm^3
tumor growth inhibition (TGI) [1, 14]: 9%
Tumor volume [1, 34]: 200.7 ± 17.3 mm^3
tumor growth inhibition (TGI) [1, 34]: 25%
Tumor volume [1, 15]: 257 ± 53 mm^3
tumor growth inhibition (TGI) [1, 15]: 16%
Tumor volume [1, 16]: 242.4 ± 18.3 mm^3
tumor growth inhibition (TGI) [1, 16]: 10%
Tumor volume [1, 21]: 318 ± 42 mm^3
tumor growth inhibition (TGI) [1, 21]: 6%
Tumor volume [1, 22]: 566.9 ± 50.2 mm^3
tumor growth inhibition (TGI) [1, 22]: 11%
Tumor volume [1, 35]: 432.1 ± 67.9 mm^3
tumor growth inhibition (TGI) [1, 35]: 32%
Tumor volume [1, 23]: 302 ± 103 mm^3
tumor growth inhibition (TGI) [1, 23]: 11%
Tumor volume [1, 24]: 510.1 ± 46.6 mm^3
tumor growth inhibition (TGI) [1, 24]: 20%
Average life time [1, 25]: 22 ± 1.2 days
ILT (increase of the animal life time) [1, 25]: 21%
Average life time [1, 26]: 24 ± 0.5 days
ILT (increase of the animal life time) [1, 26]: 0%
Metastasis MF (tumor metastasis frequency) [1, 26]: 100%
Metastasis MI (metastasis inhibition rate) [1, 26]: 10%
Average life time [1, 36]: 23 ± 1.6 days
ILT (increase of the animal life time) [1, 36]: −4%
Metastasis MF (tumor metastasis frequency) [1, 36]: 100%
Metastasis MI (metastasis inhibition rate) [1, 36]: 22%
efficiency for individual use (without chemotherapy) ([1]; example 1): did not reach a biologically significant level
Average life time [1, 27]: 20 ± 0.9 days
ILT (increase of the animal life time) [1, 27]: 7%
Average life time [1, 28]: 24 ± 0.8 days
ILT (increase of the animal life time) [1, 28]: 0%
Metastasis MF (tumor metastasis frequency) [1, 28]: 100%
Metastasis MI (metastasis inhibition rate) [1, 28]: 8%
Toxic action (acute, chronic and specific toxicity) [2]: no toxic action
